From BindingDB's records for doi:10.1021/jm8014537 (Pfizer, 2010) come the findings set out here.

Structures are written as SMILES.

The data set deals with CYP2D6 (Homo sapiens, UniProt P10635). Put plainly: Inhibition of CYP2D6 in human liver microsomes. For orientation: Liver microsomes are a subcellular fraction often used to study metabolism.
Chain of CYP2D6 (P10635 whole entry): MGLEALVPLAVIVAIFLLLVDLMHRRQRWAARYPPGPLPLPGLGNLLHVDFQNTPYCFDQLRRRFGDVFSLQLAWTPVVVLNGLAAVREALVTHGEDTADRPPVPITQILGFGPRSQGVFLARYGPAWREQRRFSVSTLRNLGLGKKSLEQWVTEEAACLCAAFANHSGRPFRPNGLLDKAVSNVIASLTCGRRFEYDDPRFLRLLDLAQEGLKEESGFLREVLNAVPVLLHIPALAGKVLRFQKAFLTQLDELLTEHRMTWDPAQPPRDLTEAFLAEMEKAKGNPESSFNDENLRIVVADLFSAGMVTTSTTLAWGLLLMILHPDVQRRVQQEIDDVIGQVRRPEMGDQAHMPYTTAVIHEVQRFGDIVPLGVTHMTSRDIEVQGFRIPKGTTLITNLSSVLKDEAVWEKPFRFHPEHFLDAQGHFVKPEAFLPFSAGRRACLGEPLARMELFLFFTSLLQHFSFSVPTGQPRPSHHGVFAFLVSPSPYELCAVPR

The IC50 is the concentration that gives 50% inhibition. In turn, `CCC(C#N)(CC)c1ccc(CCC2(C3CCCC3)CC(=O)C(Cc3nc4nc(C)cc(C)n4n3)C(=O)O2)cc1F` (configuration not stated) [2-[4-(2-{2-cyclopentyl-5-[(5,7-dimethyl[1,2,4]triazolo[1,5-a]pyrimidin-2-yl)methyl]-4-hydroxy-6-oxo-3,6-dihydro-2H-pyran-2-yl}ethyl)-2-fluorophenyl]-2-ethylbutanenitrile] had an IC50 of over 6 µM.

`Cc1cc(C)n2nc(CC3C(=O)CC(CCc4ccc(C(C)(C)O)c(F)c4)(C4CCCC4)OC3=O)nc2n1` (configuration not stated) [6-cyclopentyl-3-[(5,7-dimethyl[1,2,4]triazolo[1,5-a]pyrimidin-2-yl)methyl]-6-{2-[3-fluoro-4-(1-hydroxy-1-methylethyl)phenyl]ethyl}-4-hydroxy-5,6-dihydro-2H-pyran-2-one]: the IC50 was over 6 µM.
